Results as given in publication PMC6359675, “Functionalization of the Chalcone Scaffold for the Discovery of Novel Lead Compounds Targeting Fungal Infections” (Molecules, 2019).
Read-outs that look alike come from different tables or passages of the source.

Tests used:
[1] = test system: C. albicans ATCC 10231; assay: In vitro susceptibility testing, microdilution broth (EUCAST), C. albicans control strain; type: cell-based, Candida albicans; conditions: for inhibition at 100 µM: ATCC10231, 24 h; for antifungal activity against C. albicans growth, in words: screen at 100 μM; for IC50: mean and 95% confidence interval
Procedure: The in vitro antifungal activity of the chalcones was evaluated by a microdilution broth method in accordance with the guidelines provided by the EUCAST Edef 7.3 [22]. Briefly, all strains were cultured on Sabauraud dextrose, then inocula, prepared at 0.5 McFarland, were diluted 1:20 in RPMI-1640 medium (Gibco®, ThermoFisher Scientific Inc., Waltham, MA, USA), containing glucose 2%, 0.3% levo-glutamine buffered to pH 7.0 with 0.165 M 3-(N-morpholino)propanesulfonic acid (MOPS) to yield 1-5 × 10^5 cells/mL. A total of 100 µL of the yeast suspension was inoculated in a 96-well microplate and incubated with 100 µL of serially 2-fold dilution of the compound in the range 200–6.25 µM. The following controls were included: yeast suspensions incubated in RPMI-1640 culture medium (positive growth control), or supplemented with dilutions of DMSO, or fluconazole (Sigma-Aldrich, St. Louis, MO, USA) as a commercial drug. To check the background turbidity of reagents and the sterility of the procedure, dilutions of each compound were incubated in RPMI-1640 culture medium, without yeast inoculum. The inoculated plate was incubated at 37 °C for 24 h, and subsequently the optical density at 630 nm was measured by the Multiskan Ascent microplate reader (Thermo Fisher Scientific Inc.). The effectiveness of the compounds was expressed as percent inhibition relative to the positive growth control when the inhibition […] the 50% at 100 µM. The IC50 value was determined by interpolation of the dose–response curves generated by plotting the percentages of growth inhibition, relative to the drug-free control (set to 100% of growth), as a function of the tested concentrations (on a logarithm scale). Statistical analysis was carried out by the nonlinear regression method using GraphPad Prism version 5.0 for Windows (GraphPad Software, San Diego, CA, USA). All assays were performed in triplicate and at least two independent experiments were carried out.

[2] = Cytotoxicity test on Vero cells (WST8/CCK-8 cell viability); type: cell-based, African green monkey; conditions: African green monkey, Vero cells (ATCC CCL-81), Vero cells, mean and 95% confidence interval
Procedure: African green monkey kidney cells (Vero ATCC CCL-81) were cultured in Eagle’s Minimal Essential Medium (MEM) (Sigma-Aldrich), supplemented with 10% fetal bovine serum (FBS) (Carlo Erba Reagents, Milan, Italy), 100 U/mL penicillin, and 100 µg/mL streptomycin at 37 °C with 5% CO2. For experiments, cells were seeded into 96-well plates at 10^4 cells/well, and incubated at 37 °C for 24 h. Following washes with PBS, cell monolayer was incubated with 100 µL of serially 2-fold dilution of the compound in the range 200–6.25 µM. Both untreated cells and cells incubated with medium containing solvent dilutions were included in each experiment as controls.
The cell viability was assessed by a WST8-based assay according to the manufacturer’s instructions (CCK-8, Cell Counting Kit-8, Dojindo Molecular Technologies, Rockville, MD, USA). After 72 h of incubation, culture medium was removed from each well, the monolayer was washed with PBS, and 100 µL of fresh medium containing 10 µL of CCK-8 solution were added. Following a 2 h at 37 °C, the absorbance was measured at 450/630 nm; data were calculated as the percentage of the cell viability relative to the untreated controls.

[3] = Candida albicans, C. albicans ATCC 10231
[4] = Candida albicans, ATCC10231, C. albicans ATCC 10231, read-out: IC50
[5] = Candida albicans, ATCC10231, C. albicans ATCC 10231, read-out: IC50 [μg/mL]
[6] = C. albicans ATCC 10231, read-out: IC50

Structure (SMILES): O=C(/C=C/c1ccc(F)cc1)c1cc(F)ccc1O [Compound 8, (E)-1-(5-Fluoro-2-hydroxyphenyl)-3-(4-fluorophenyl)prop-2-en-1-one]
- inhibition at 100 µM [1, 3]: < 1%

Structure (SMILES): COc1cc(OCc2cn(CCO)nn2)ccc1C(=O)/C=C/c1ccc(F)cc1 [Compound 30, (E)-3-(4-fluorophenyl)-1-(4-((1-(2-hydroxyethyl)-1H-1,2,3-triazol-4-yl)methoxy)-2-methoxyphenyl)prop-2-en-1-one]
- inhibition at 100 µM [1, 3]: 9.5 ± 4.8%
- antifungal activity against C. albicans growth, in words ([1]; C. albicans ATCC 10231): inactive

Structure (SMILES): C#CCOc1ccc(C(=O)/C=C/c2cccnc2)c(O)c1 [Compound 16]
- IC50 [1, 4]: 10.8 µM
- IC50 [1, 5]: 3.2 µg/mL
- inhibition at 100 µM [1, 3]: 91.9 ± 8.2%
- CC50 at 72 h ([2]; read-out: CC50): 17.8 µM
- CC50 at 72 h ([2]; read-out: CC50 [μg/mL]): 5.2 µg/mL

Structure (SMILES): C#CCOc1ccc(C(=O)/C=C/c2ccc(N(C)C)cc2)cc1 [Compound 39, (E)-3-(4-(dimethylamino)phenyl)-1-(4-(prop-2-yn-1-yloxy)phenyl)prop-2-en-1-one]
- inhibition at 100 µM [1, 3]: < 1%
- antifungal activity against C. albicans growth, in words ([1]; C. albicans ATCC 10231): inactive

Structure (SMILES): O=C(/C=C/c1ccc(F)cc1)c1ccc(OCCO)cc1 [Compound 31, (E)-3-(4-fluorophenyl)-1-(4-(2-hydroxyethoxy)phenyl)prop-2-en-1-one]
- IC50 [1, 4]: 12 µM
- IC50 [1, 5]: 3.5 µg/mL
- inhibition at 100 µM [1, 3]: 97.3 ± 0.5%
- CC50 at 72 h ([2]; read-out: CC50): 8.3 µM
- CC50 at 72 h ([2]; read-out: CC50 [μg/mL]): 2.4 µg/mL

Structure (SMILES): C#CCOc1ccc(C(=O)/C=C/c2ccc(N(C)C)cc2)c(OC)c1 [Compound 15, (E)-3-(4-(dimethylamino)phenyl)-1-(2-methoxy-4-(prop-2-yn-1-yloxy)phenyl)prop-2-en-1-one]
- inhibition at 100 µM [1, 3]: < 1%
- antifungal activity against C. albicans growth, in words ([1]; C. albicans ATCC 10231): inactive

Structure (SMILES): C#CCOc1ccc(C(=O)/C=C/c2ccc(N(C)C)cc2)c(O)c1 [Compound 17, (E)-3-(4-(dimethylamino)phenyl)-1-(2-hydroxy-4-(prop-2-yn-1-yloxy)phenyl)prop-2-en-1-one]
- inhibition at 100 µM [1, 3]: 11 ± 3.9%
- antifungal activity against C. albicans growth, in words ([1]; C. albicans ATCC 10231): inactive

Structure (SMILES): CC(C)=CCOc1ccc(C(=O)/C=C/c2ccc([N+](=O)[O-])cc2)cc1 [Compound 34, (E)-1-(4-((3-methylbut-2-en-1-yl)oxy)phenyl)-3-(4-nitrophenyl)prop-2-en-1-one]
- inhibition at 100 µM [1, 3]: 37.9 ± 5.2%
- antifungal activity against C. albicans growth, in words ([1]; C. albicans ATCC 10231): inactive
- melting point: 100 to 102 °C

Structure (SMILES): CC(C)=CCOc1ccc(C(=O)/C=C/c2cccnc2)cc1 [Compound 32, (E)-1-(4-((3-methylbut-2-en-1-yl)oxy)phenyl)-3-(pyridin-3-yl)prop-2-en-1-one]
- inhibition at 100 µM [1, 3]: < 1%
- antifungal activity against C. albicans growth, in words ([1]; C. albicans ATCC 10231): devoid of any effect
- melting point: 87 to 88 °C

Structure (SMILES): C#CCOc1ccc(C(=O)/C=C/c2ccc(Cl)cc2Cl)c(OC)c1 [Compound 11, (E)-3-(2,4-dichlorophenyl)-1-(2-methoxy-4-(prop-2-yn-1-yloxy)phenyl)prop-2-en-1-one]
- inhibition at 100 µM [1, 3]: 9.8 ± 6.7%
- antifungal activity against C. albicans growth, in words ([1]; C. albicans ATCC 10231): inactive
- melting point: 174 to 175 °C

Structure (SMILES): C#CCOc1ccc(C(=O)/C=C/c2ccncc2)c(OC)c1 [Compound 13]
- IC50 [1, 4]: 8.1 µM
- IC50 [1, 5]: 2.4 µg/mL
- inhibition at 100 µM [1, 3]: > 99%
- CC50 at 72 h ([2]; read-out: CC50): 7.3 µM
- CC50 at 72 h ([2]; read-out: CC50 [μg/mL]): 2.1 µg/mL

Structure (SMILES): CN(C)c1ccc(/C=C/C(=O)c2cc(Cl)ccc2O)cc1 [Compound 6, (E)-1-(5-chloro-2-hydroxyphenyl)-3-(4-(dimethylamino)phenyl)prop-2-en-1-one]
- inhibition at 100 µM [1, 3]: < 1%
- antifungal activity against C. albicans growth, in words ([1]; C. albicans ATCC 10231): inactive

Structure (SMILES): C#CCOc1ccc(C(=O)/C=C/c2cccnc2)c(OCC#C)c1 [Compound 24]
- IC50 [1, 6]: 43.8 µM
- IC50 [1, 4]: 26.3 µM
- IC50 [1, 5]: 12.8 µg/mL
- inhibition at 100 µM [1, 3]: 72 ± 9.8%
- CC50 at 72 h ([2]; read-out: CC50): 13 µM
- CC50 at 72 h ([2]; read-out: CC50 [μg/mL]): 3.8 µg/mL

Structure (SMILES): C#CCOc1ccc(C(=O)/C=C/c2ccc([N+](=O)[O-])cc2)c(OCC#C)c1 [Compound 26]
- IC50 [1, 4]: 36.8 µM
- IC50 [1, 5]: 10.8 µg/mL
- inhibition at 100 µM [1, 3]: 63.9 ± 3.4%
- CC50 at 72 h ([2]; read-out: CC50): 5.1 µM
- CC50 at 72 h ([2]; read-out: CC50 [μg/mL]): 1.5 µg/mL

Structure (SMILES): CC(C)=CCOc1ccc(C(=O)/C=C/c2ccncc2)c(O)c1 [Compound 21]
- IC50 [1, 4]: 12.6 µM
- IC50 [1, 5]: 3.7 µg/mL
- inhibition at 100 µM [1, 3]: 96.5 ± 1.4%
- CC50 at 72 h ([2]; read-out: CC50): 14.8 µM
- CC50 at 72 h ([2]; read-out: CC50 [μg/mL]): 4.3 µg/mL

Structure (SMILES): C#CCOc1ccc(C(=O)/C=C/c2ccncc2)cc1 [Compound 37, (E)-1-(4-(prop-2-yn-1-yloxy)phenyl)-3-(pyridin-4-yl)prop-2-en-1-one]
- inhibition at 100 µM [1, 3]: < 1%
- antifungal activity against C. albicans growth, in words ([1]; C. albicans ATCC 10231): devoid of any effect
- melting point: 99 to 101 °C

Structure (SMILES): C#CCOc1ccc(C(=O)/C=C/c2ccc(F)cc2)c(OC)c1 [Compound 10, (E)-3-(4-fluorophenyl)-1-(2-methoxy-4-(prop-2-yn-1-yloxy)phenyl)prop-2-en-1-one]
- inhibition at 100 µM [1, 3]: 23.3 ± 9.6%

Structure (SMILES): CN(C)c1ccc(/C=C/C(=O)c2cc(F)ccc2O)cc1 [Compound 9, (E)-3-(4-(Dimethylamino)phenyl)-1-(5-fluoro-2-hydroxyphenyl)prop-2-en-1-one]
- inhibition at 100 µM [1, 3]: 38.5 ± 2.9%

Structure (SMILES): C#CCOc1ccc(C(=O)/C=C/c2ccc(F)cc2)c(OCC#C)c1 [Compound 22]
- inhibition at 100 µM [1, 3]: < 1%
- antifungal activity against C. albicans growth, in words ([1]; C. albicans ATCC 10231): inactive

Structure (SMILES): CC(C)=CCOc1ccc(C(=O)/C=C/c2ccncc2)cc1 [Compound 33, (E)-1-(4-((3-methylbut-2-en-1-yl)oxy)phenyl)-3-(pyridin-4-yl)prop-2-en-1-one]
- inhibition at 100 µM [1, 3]: < 1%
- antifungal activity against C. albicans growth, in words ([1]; C. albicans ATCC 10231): devoid of any effect
- melting point: 91 to 93 °C

Structure (SMILES): C#CCOc1ccc2c(c1)O/C(=C\c1cccnc1)C2=O [Compound 40, (Z)-6-(prop-2-yn-1-yloxy)-2-(pyridin-3-ylmethylene)benzofuran-3(2H)-one]
- inhibition at 100 µM [1, 3]: < 1%
- antifungal activity against C. albicans growth, in words ([1]; C. albicans ATCC 10231): loss in activity

Structure (SMILES): COc1cc(O)ccc1C(=O)/C=C/c1ccc(F)cc1 [Compound 29, (E)-3-(4-Fluorophenyl)-1-(4-hydroxy-2-methoxyphenyl)prop-2-en-1-one]
- inhibition at 100 µM [1, 3]: 17.8 ± 4.1%
- antifungal activity against C. albicans growth, in words ([1]; C. albicans ATCC 10231): poor inhibition

Structure (SMILES): C#CCOc1ccc(C(=O)/C=C/c2ccncc2)c(OCC#C)c1 [Compound 25]
- IC50 [1, 6]: 26.3 µM
- IC50 [1, 4]: 43.8 µM
- IC50 [1, 5]: 7.7 µg/mL
- inhibition at 100 µM [1, 3]: 81.3 ± 17%
- CC50 at 72 h ([2]; read-out: CC50): 9.1 µM
- CC50 at 72 h ([2]; read-out: CC50 [μg/mL]): 2.7 µg/mL

Structure (SMILES): C#CCOc1ccc(C(=O)/C=C/c2ccc(N(C)C)cc2)c(OCC#C)c1 [Compound 27, (E)-1-(2,4-bis(prop-2-yn-1-yloxy)phenyl)-3-(4-(dimethylamino)phenyl)prop-2-en-1-one]
- inhibition at 100 µM [1, 3]: < 1%
- antifungal activity against C. albicans growth, in words ([1]; C. albicans ATCC 10231): inactive

Structure (SMILES): O=C(/C=C/c1ccccc1F)c1cc(Cl)ccc1O [Compound 2, (E)-1-(5-Chloro-2-hydroxyphenyl)-3-(2-fluorophenyl)prop-2-en-1-one]
- inhibition at 100 µM [1, 3]: 35.8 ± 1.1%

Structure (SMILES): COc1cc(OCC=C(C)C)ccc1C(=O)/C=C/c1ccc(F)cc1 [Compound 18]
- inhibition at 100 µM [1, 3]: 34.1 ± 7.5%

Structure (SMILES): CC(C)=CCOc1ccc(C(=O)/C=C/c2ccc(N(C)C)cc2)cc1 [Compound 35, (E)-3-(4-(dimethylamino)phenyl)-1-(4-((3-methylbut-2-en-1-yl)oxy)phenyl)prop-2-en-1-one]
- inhibition at 100 µM [1, 3]: 13.9 ± 3.6%
- antifungal activity against C. albicans growth, in words ([1]; C. albicans ATCC 10231): inactive

Structure (SMILES): C#CCOc1ccc(C(=O)/C=C/c2cccnc2)c(OC)c1 [Compound 12]
- IC50 [1, 4]: 30.7 µM
- IC50 [1, 5]: 9 µg/mL
- inhibition at 100 µM [1, 3]: > 99%
- CC50 at 72 h ([2]; read-out: CC50): 13.6 µM
- CC50 at 72 h ([2]; read-out: CC50 [μg/mL]): 4 µg/mL
